According to patent US20260191838A1, “COMBINATIONS COMPRISING A MENIN-MLL INHIBITOR AND A BCL-2 INHIBITOR” (JANSSEN PHARMACEUTICA NV, priority 2022, published 2026):

What was measured:
MOLM-13 cells = assay: In vitro proliferation (Cell Titer Glo), Compound 51 with decitabine and venetoclax, MOLM-13; format: cell-based, human; set-up: key to maxR test call (additive / antagonism / synergy): no asterisk: absence of any asterisk indicates an additive effect; antagonism is indicated by “*”; synergy is indicated by “**”; Effect size (BIGL, HSA null model): scale not given here
Method: (§1) 3a) In Vitro Proliferation—Menin-MLL Inhibitor in Combination with a DNA Hypomethylating Agent (Decitabine) and a BCL2 Inhibitor (Venetoclax)
(§2) The effect of Compound 51 in combination with decitabine and venetoclax was determined in proliferation assays.
(§3) AML cell lines MOLM-13, OCI-AML3 and MV4-11 were purchased from DSMZ. MOLM-13 were grown in RPMI medium supplemented with 10% Fetal Bovine Serum (FBS) and 1% penicillin/streptomycin. MV4-11 cells were grown in IMDM medium supplemented with 10% FBS and 1% penicillin/streptomycin. OCI-AML3 cells were cultured in 80-90% alpha-MEM (without ribo- and deoxyribonucleosides)+10-20% FBS. All cell lines were cultured at 37° C. in 5% CO2 atmosphere.
(§4) AML cell lines (10×10^3 cells/well) were seeded in 96-well plates and grown for 6 days in serum (10%)-containing medium in the presence or absence of inhibitors at the indicated concentrations. Proliferation was analyzed by means of a Cell Titer Glo assay using the CellTiter 96 Aqueous One Solution Cell Proliferation Assay (Promega, Madison, WI, USA), according to the manufacturer's instructions. Data are mean with standard deviation from two to four independent experiments in technical triplicates.
(§5) R-based Biochemically Intuitive Generalized Loewe (BIGL) model implemented with a highest single agent (HSA) null model. Specifically, the BIGL methodology was applied to calculate drug-drug interactions (Van der Borght, K., Tourny, A., Bagdziunas, R. et al. BIGL: Biochemically Intuitive Generalized Loewe null model for prediction of the expected combined effect compatible with partial agonism and antagonism. Sci Rep 7, 17935 (2017); Thas, O., Tourny, A., Verbist, B., Hawinkel, S., Nazarov, M., Mutambanengwe, K., & Bijnens, L. Statistical detection of synergy: new methods and a comparative study. Pharmaceutical Statistics (2021)).
(§6) Synergy matrix results of the BIGL analysis of the cell line data with HSA as mean model calculated on the basis of the cellular metabolic activity using Cell Titer-Glo assay. Bootstrap confidence intervals are indicated. Effect sizes and their confidence intervals are shown. […] No significant average effect if zero is included in the interval.

MV4-11 cells = assay: In vitro proliferation (Cell Titer Glo), Compound 51 with decitabine and venetoclax, MV4-11; format: cell-based, human; set-up: key to Synergy/antagonism call (maxR test): no asterisk: absence of any asterisk indicates an additive effect; antagonism is indicated by “*”; synergy is indicated by “**”; Effect size (BIGL, HSA null model): scale not given here
Method: as §1, §2, §3, §4, §5, §6

[1] = Compound 51 0.001 μM, Decitabine 0.0015 μM, Venetoclax 0.0001 μM
[2] = Compound 51 0.001 μM, Decitabine 0.015 μM, Venetoclax 0.001 μM
[3] = Compound 51 0.001 μM, Decitabine 1.5 μM, Venetoclax 0.02 μM
[4] = Compound 51 0.001 μM, Decitabine 3 μM, Venetoclax 0.2 μM
[5] = Compound 51 0.01 μM, Decitabine 0.0015 μM, Venetoclax 0.0001 μM
[6] = Compound 51 0.01 μM, Decitabine 0.015 μM, Venetoclax 0.001 μM
[7] = Compound 51 0.01 μM, Decitabine 1.5 μM, Venetoclax 0.02 μM
[8] = Compound 51 0.01 μM, Decitabine 3 μM, Venetoclax 0.2 μM
[9] = Compound 51 0.05 μM, Decitabine 0.0015 μM, Venetoclax 0.0001 μM
[10] = Compound 51 0.05 μM, Decitabine 0.015 μM, Venetoclax 0.001 μM
[11] = Compound 51 0.05 μM, Decitabine 0.35 μM, Venetoclax 0.002 μM
[12] = Compound 51 0.05 μM, Decitabine 1.5 μM, Venetoclax 0.02 μM
[13] = Compound 51 0.05 μM, Decitabine 3 μM, Venetoclax 0.2 μM
[14] = Compound 51 0.1 μM, Decitabine 0.0015 μM, Venetoclax 0.0001 μM
[15] = Compound 51 0.1 μM, Decitabine 0.015 μM, Venetoclax 0.001 μM
[16] = Compound 51 0.1 μM, Decitabine 0.35 μM, Venetoclax 0.002 μM
[17] = Compound 51 0.1 μM, Decitabine 1.5 μM, Venetoclax 0.02 μM
[18] = Compound 51 0.1 μM, Decitabine 3 μM, Venetoclax 0.2 μM
[19] = Compound 51 1 μM, Decitabine 0.0015 μM, Venetoclax 0.0001 μM
[20] = Compound 51 1 μM, Decitabine 0.015 μM, Venetoclax 0.001 μM
[21] = Compound 51 1 μM, Decitabine 0.35 μM, Venetoclax 0.002 μM
[22] = Compound 51 1 μM, Decitabine 1.5 μM, Venetoclax 0.02 μM
[23] = Compound 51 1 μM, Decitabine 3 μM, Venetoclax 0.2 μM
[24] = Compound 51 10 μM, Decitabine 0.015 μM, Venetoclax 0.001 μM
[25] = Compound 51 10 μM, Decitabine 0.35 μM, Venetoclax 0.002 μM
[26] = Compound 51 0.01 μM, Decitabine 0.15 μM, Venetoclax 0.002 μM
[27] = Compound 51 0.05 μM, Decitabine 0.15 μM, Venetoclax 0.002 μM
[28] = Compound 51 0.1 μM, Decitabine 0.15 μM, Venetoclax 0.002 μM

## CC(=O)N1CCC(CN2CC[C@@H](Cc3cn(-c4ccc(F)cc4C(=O)N(C)C(C)C)c4cncc(C)c34)C2)CC1 [Compound 51]
MOLM-13 cells; [1]
  Effect size (BIGL, HSA null model): −0.04
MOLM-13 cells; [2]
  Effect size (BIGL, HSA null model): −0.05
MOLM-13 cells; Compound 51 0.001 μM, Decitabine 0.35 μM, Venetoclax 0.002 μM
  Effect size (BIGL, HSA null model): 0.01
MOLM-13 cells; [3]
  Effect size (BIGL, HSA null model): −0.04
MOLM-13 cells; [4]
  Effect size (BIGL, HSA null model): −0.03
MOLM-13 cells; [5]
  Effect size (BIGL, HSA null model): −0.02
MOLM-13 cells; [6]
  Effect size (BIGL, HSA null model): −0.17
MOLM-13 cells; Compound 51 0.01 μM, Decitabine 0.35 μM, Venetoclax 0.002 μM
  Effect size (BIGL, HSA null model): −0.1
MOLM-13 cells; [7]
  Effect size (BIGL, HSA null model): −0.05
MOLM-13 cells; [8]
  Effect size (BIGL, HSA null model): −0.03
MOLM-13 cells; [9]
  Effect size (BIGL, HSA null model): −0.03
MOLM-13 cells; [10]
  Effect size (BIGL, HSA null model): −0.18
  maxR test call (additive / antagonism / synergy): **
MOLM-13 cells; [11]
  Effect size (BIGL, HSA null model): −0.25
  maxR test call (additive / antagonism / synergy): **
MOLM-13 cells; [12]
  Effect size (BIGL, HSA null model): −0.05
MOLM-13 cells; [13]
  Effect size (BIGL, HSA null model): −0.03
MOLM-13 cells; [14]
  Effect size (BIGL, HSA null model): 0.01
MOLM-13 cells; [15]
  Effect size (BIGL, HSA null model): −0.16
  maxR test call (additive / antagonism / synergy): **
MOLM-13 cells; [16]
  Effect size (BIGL, HSA null model): −0.27
  maxR test call (additive / antagonism / synergy): **
MOLM-13 cells; [17]
  Effect size (BIGL, HSA null model): −0.05
MOLM-13 cells; [18]
  Effect size (BIGL, HSA null model): −0.03
MOLM-13 cells; [19]
  Effect size (BIGL, HSA null model): 0.05
MOLM-13 cells; [20]
  Effect size (BIGL, HSA null model): −0.12
MOLM-13 cells; [21]
  Effect size (BIGL, HSA null model): −0.28
  maxR test call (additive / antagonism / synergy): **
MOLM-13 cells; [22]
  Effect size (BIGL, HSA null model): −0.05
MOLM-13 cells; [23]
  Effect size (BIGL, HSA null model): −0.03
MOLM-13 cells; Compound 51 10 μM, Decitabine 0.0015 μM, Venetoclax 0.0001 μM
  Effect size (BIGL, HSA null model): −0.05
MOLM-13 cells; [24]
  Effect size (BIGL, HSA null model): −0.17
  maxR test call (additive / antagonism / synergy): **
MOLM-13 cells; [25]
  Effect size (BIGL, HSA null model): −0.29
  maxR test call (additive / antagonism / synergy): **
MOLM-13 cells; Compound 51 10 μM, Decitabine 1.5 μM, Venetoclax 0.02 μM
  Effect size (BIGL, HSA null model): −0.05
MOLM-13 cells; Compound 51 10 μM, Decitabine 3 μM, Venetoclax 0.2 μM
  Effect size (BIGL, HSA null model): −0.03
MOLM-13 cells; pairwise matrix of decitabine and Compound 51 in the presence of Venetoclax, MOLM-13, 6-day CellTiter-Glo
  combination effect on proliferation (in words): synergistically cytotoxic
MV4-11 cells; [1]
  Effect size (BIGL, HSA null model): −0.02
MV4-11 cells; [2]
  Effect size (BIGL, HSA null model): −0.05
MV4-11 cells; Compound 51 0.001 μM, Decitabine 0.15 μM, Venetoclax 0.002 μM
  Effect size (BIGL, HSA null model): −0.01
MV4-11 cells; [3]
  Effect size (BIGL, HSA null model): −0.08
MV4-11 cells; [4]
  Effect size (BIGL, HSA null model): −0.06
MV4-11 cells; [5]
  Effect size (BIGL, HSA null model): −0.02
MV4-11 cells; [6]
  Effect size (BIGL, HSA null model): 0.22
  Synergy/antagonism call (maxR test): **
MV4-11 cells; [26]
  Effect size (BIGL, HSA null model): −0.26
  Synergy/antagonism call (maxR test): **
MV4-11 cells; [7]
  Effect size (BIGL, HSA null model): −0.1
  Synergy/antagonism call (maxR test): **
MV4-11 cells; [8]
  Effect size (BIGL, HSA null model): −0.06
MV4-11 cells; [9]
  Effect size (BIGL, HSA null model): 0
MV4-11 cells; [10]
  Effect size (BIGL, HSA null model): −0.17
  Synergy/antagonism call (maxR test): **
MV4-11 cells; [27]
  Effect size (BIGL, HSA null model): −0.24
  Synergy/antagonism call (maxR test): **
MV4-11 cells; [12]
  Effect size (BIGL, HSA null model): −0.1
  Synergy/antagonism call (maxR test): **
MV4-11 cells; [13]
  Effect size (BIGL, HSA null model): −0.06
MV4-11 cells; [14]
  Effect size (BIGL, HSA null model): 0.03
MV4-11 cells; [15]
  Effect size (BIGL, HSA null model): −0.06
MV4-11 cells; [28]
  Effect size (BIGL, HSA null model): −0.09
  Synergy/antagonism call (maxR test): **
MV4-11 cells; [17]
  Effect size (BIGL, HSA null model): −0.3
  Synergy/antagonism call (maxR test): **
MV4-11 cells; [18]
  Effect size (BIGL, HSA null model): −0.06
MV4-11 cells; Compound 51 0.5 μM, Decitabine 0.0015 μM, Venetoclax 0.0001 μM
  Effect size (BIGL, HSA null model): 0
MV4-11 cells; Compound 51 0.5 μM, Decitabine 0.015 μM, Venetoclax 0.001 μM
  Effect size (BIGL, HSA null model): −0.02
MV4-11 cells; Compound 51 0.5 μM, Decitabine 0.15 μM, Venetoclax 0.002 μM
  Effect size (BIGL, HSA null model): −0.02
MV4-11 cells; Compound 51 0.5 μM, Decitabine 1.5 μM, Venetoclax 0.02 μM
  Effect size (BIGL, HSA null model): −0.03
MV4-11 cells; Compound 51 0.5 μM, Decitabine 3 μM, Venetoclax 0.2 μM
  Effect size (BIGL, HSA null model): −0.03
MV4-11 cells; [19]
  Effect size (BIGL, HSA null model): −0.03
MV4-11 cells; [20]
  Effect size (BIGL, HSA null model): −0.02
MV4-11 cells; Compound 51 1 μM, Decitabine 0.15 μM, Venetoclax 0.002 μM
  Effect size (BIGL, HSA null model): −0.02
MV4-11 cells; [22]
  Effect size (BIGL, HSA null model): −0.03
MV4-11 cells; [23]
  Effect size (BIGL, HSA null model): −0.08
MV4-11 cells; pairwise matrix of decitabine and Compound 51 in the presence of Venetoclax, MV4-11, 6-day CellTiter-Glo
  combination effect on proliferation (in words): synergistically cytotoxic
